Earlier results, collected in patent publication US12599665B2, “Gene fusions for control of genetically modified cells” (A2 Biotherapeutics, Inc., priority 2020, dated 2026).

Assays:
[1] = molecular target: T1, ER(T2) (human ER LBD G400V/M543A/L544A) (Homo sapiens, UniProt P03372, G400V/L544A/M543A); details: ER(T2) vs ER(T); cited from earlier work
T1 construct: a human ER LBD and comprising point mutations G400V/M543A/L544A, which is termed ER(T2)
T1 sequence (P03372 311-547 G400V/M543A/L544A limits assumed): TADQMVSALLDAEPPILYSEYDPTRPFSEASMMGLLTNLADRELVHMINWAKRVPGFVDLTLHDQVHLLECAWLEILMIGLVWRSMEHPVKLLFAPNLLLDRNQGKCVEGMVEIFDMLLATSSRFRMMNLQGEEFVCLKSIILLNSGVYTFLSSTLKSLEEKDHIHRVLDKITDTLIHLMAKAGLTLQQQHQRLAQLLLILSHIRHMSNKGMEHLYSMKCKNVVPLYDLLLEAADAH

[2] = molecular target: T2, Peroxisome proliferator-activated receptor-γ (NR1C3) (Homo sapiens, UniProt P37231); details: antagonist, Table 2, cited from earlier work
T2 sequence (P37231 1-505): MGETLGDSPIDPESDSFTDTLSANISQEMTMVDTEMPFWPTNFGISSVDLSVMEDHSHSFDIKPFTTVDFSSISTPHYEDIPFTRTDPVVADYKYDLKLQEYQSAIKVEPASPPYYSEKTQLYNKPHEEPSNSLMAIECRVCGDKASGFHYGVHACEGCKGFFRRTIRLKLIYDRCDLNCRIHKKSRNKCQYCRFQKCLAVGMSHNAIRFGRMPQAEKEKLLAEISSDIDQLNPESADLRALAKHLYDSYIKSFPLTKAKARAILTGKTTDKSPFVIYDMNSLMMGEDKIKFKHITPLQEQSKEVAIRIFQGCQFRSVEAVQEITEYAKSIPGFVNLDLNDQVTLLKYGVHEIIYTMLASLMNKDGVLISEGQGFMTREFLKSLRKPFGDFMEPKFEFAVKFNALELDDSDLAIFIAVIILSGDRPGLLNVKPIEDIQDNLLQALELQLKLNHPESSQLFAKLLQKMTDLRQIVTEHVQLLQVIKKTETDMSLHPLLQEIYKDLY

[3] = molecular target: T3, Peroxisome proliferator-activated receptor-α (NR1C1) (Homo sapiens, UniProt Q07869); details: antagonist, Table 2; cited from earlier work
T3 sequence (Q07869 1-468): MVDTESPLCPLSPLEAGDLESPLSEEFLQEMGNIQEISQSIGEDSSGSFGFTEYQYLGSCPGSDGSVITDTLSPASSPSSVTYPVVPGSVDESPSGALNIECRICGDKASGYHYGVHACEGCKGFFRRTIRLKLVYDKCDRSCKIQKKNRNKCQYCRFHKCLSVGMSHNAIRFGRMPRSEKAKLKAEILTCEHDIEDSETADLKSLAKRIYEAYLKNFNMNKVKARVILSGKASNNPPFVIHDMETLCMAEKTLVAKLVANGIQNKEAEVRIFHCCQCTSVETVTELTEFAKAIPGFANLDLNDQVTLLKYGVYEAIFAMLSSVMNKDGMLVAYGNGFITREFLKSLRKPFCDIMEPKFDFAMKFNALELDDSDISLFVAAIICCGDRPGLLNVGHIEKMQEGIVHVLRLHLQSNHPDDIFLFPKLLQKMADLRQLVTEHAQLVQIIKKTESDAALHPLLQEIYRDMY

[4] = molecular target: Estrogen receptor-β (NR3A2) (Homo sapiens, UniProt Q92731); details: antagonist, Table 2; cited from earlier work
Sequence of Estrogen receptor-β (NR3A2) (Q92731 whole entry): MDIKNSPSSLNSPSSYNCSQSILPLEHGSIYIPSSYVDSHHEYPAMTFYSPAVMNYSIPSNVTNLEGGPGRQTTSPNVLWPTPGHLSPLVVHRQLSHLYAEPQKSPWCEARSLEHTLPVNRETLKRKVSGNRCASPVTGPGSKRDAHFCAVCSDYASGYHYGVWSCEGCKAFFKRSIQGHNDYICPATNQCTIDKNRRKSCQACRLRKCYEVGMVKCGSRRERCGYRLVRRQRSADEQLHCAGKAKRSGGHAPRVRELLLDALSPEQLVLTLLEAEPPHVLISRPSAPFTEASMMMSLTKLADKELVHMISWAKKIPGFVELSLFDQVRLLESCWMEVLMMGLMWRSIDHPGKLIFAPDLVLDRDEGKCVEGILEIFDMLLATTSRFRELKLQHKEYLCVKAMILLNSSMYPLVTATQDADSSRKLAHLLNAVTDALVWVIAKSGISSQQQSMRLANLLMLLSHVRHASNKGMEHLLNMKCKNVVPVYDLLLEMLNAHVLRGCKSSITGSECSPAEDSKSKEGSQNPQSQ

Rev-Erb-α (NR1D1) = molecular target: T4, Rev-Erb-α (NR1D1) (Homo sapiens, UniProt P20393); details: antagonist, Table 2; cited from earlier work
T4 sequence (P20393 1-614): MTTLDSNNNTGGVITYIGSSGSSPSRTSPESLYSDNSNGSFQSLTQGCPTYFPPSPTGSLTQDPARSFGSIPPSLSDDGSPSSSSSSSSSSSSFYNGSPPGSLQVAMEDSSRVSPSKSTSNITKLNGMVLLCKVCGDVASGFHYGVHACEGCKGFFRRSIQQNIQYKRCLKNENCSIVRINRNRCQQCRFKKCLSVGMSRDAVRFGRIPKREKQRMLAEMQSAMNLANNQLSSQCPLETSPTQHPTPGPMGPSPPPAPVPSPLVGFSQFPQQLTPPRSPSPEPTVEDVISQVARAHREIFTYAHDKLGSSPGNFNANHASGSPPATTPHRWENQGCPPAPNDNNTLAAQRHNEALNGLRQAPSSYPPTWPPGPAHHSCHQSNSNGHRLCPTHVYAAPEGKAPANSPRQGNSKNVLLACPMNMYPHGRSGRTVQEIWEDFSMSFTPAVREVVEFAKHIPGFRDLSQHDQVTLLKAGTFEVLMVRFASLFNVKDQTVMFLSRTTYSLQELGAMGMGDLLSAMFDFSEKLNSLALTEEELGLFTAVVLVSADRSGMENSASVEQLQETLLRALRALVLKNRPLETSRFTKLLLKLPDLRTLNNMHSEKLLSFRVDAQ

Vitamin D receptor [5] = molecular target: T5, Vitamin D receptor (Gallus gallus, UniProt O42392); details: antagonist, Table 2; Chicken; cited from earlier work
T5 sequence (O42392 1-451): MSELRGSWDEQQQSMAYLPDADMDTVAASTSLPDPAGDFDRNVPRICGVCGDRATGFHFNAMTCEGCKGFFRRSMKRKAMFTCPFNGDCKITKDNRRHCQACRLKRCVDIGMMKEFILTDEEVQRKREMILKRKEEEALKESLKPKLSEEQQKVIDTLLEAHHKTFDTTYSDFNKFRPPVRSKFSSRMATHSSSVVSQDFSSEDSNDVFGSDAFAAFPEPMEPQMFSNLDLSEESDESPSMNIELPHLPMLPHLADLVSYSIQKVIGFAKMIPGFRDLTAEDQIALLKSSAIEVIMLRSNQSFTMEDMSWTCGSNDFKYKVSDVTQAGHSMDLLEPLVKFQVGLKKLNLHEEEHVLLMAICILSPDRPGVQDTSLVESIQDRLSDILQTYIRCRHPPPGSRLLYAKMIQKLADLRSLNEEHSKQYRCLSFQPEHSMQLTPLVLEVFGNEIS

Vitamin D receptor [6] = molecular target: T6, Vitamin D receptor (Homo sapiens, UniProt P11473); details: antagonist, Table 2; cited from earlier work
T6 sequence (P11473 1-427): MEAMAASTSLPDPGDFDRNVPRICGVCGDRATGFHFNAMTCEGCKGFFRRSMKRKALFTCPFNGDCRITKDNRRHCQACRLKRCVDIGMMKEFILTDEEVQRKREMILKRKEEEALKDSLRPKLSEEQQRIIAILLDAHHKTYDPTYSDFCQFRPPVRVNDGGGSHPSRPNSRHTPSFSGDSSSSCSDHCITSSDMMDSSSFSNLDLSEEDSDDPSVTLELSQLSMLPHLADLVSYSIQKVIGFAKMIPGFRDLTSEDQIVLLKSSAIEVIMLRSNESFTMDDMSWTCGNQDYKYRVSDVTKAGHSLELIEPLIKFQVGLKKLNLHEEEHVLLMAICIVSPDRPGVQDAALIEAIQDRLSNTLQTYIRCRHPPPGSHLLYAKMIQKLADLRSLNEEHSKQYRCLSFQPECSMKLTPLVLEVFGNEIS

[7] = molecular target: T7, Mineralocorticoid receptor (NR3C2) (Homo sapiens, UniProt P08235); details: antagonist, Table 2; cited from earlier work
T7 sequence (P08235 1-984): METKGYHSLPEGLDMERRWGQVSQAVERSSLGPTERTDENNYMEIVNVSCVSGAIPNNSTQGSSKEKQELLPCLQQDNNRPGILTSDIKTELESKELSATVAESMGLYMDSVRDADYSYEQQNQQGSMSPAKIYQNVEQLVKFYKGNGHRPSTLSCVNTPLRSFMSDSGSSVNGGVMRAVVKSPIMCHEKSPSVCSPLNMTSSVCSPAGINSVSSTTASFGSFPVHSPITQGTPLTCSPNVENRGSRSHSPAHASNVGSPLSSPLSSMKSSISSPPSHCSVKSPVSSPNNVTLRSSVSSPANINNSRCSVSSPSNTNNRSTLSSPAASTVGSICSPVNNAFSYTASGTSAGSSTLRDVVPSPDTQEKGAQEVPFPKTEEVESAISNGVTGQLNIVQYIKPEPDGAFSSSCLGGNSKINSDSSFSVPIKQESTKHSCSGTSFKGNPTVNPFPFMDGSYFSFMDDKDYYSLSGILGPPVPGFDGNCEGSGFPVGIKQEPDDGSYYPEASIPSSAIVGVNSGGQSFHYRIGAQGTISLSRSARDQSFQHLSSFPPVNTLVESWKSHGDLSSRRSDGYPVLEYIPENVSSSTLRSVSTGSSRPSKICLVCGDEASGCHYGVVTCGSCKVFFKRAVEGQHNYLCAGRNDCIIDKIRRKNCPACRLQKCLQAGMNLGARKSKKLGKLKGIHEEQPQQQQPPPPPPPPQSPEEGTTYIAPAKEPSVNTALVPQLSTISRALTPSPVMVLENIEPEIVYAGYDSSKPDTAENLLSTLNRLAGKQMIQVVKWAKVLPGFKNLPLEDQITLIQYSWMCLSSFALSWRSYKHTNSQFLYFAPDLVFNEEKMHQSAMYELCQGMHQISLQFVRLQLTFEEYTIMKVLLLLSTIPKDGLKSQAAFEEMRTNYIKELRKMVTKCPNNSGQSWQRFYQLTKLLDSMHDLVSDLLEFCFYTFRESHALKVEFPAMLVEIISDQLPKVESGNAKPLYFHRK

[8] = molecular target: T8, Glucocorticoid receptor (NR3C1) (Homo sapiens, UniProt P04150); details: antagonist, Table 2; cited from earlier work
T8 sequence (P04150 1-777): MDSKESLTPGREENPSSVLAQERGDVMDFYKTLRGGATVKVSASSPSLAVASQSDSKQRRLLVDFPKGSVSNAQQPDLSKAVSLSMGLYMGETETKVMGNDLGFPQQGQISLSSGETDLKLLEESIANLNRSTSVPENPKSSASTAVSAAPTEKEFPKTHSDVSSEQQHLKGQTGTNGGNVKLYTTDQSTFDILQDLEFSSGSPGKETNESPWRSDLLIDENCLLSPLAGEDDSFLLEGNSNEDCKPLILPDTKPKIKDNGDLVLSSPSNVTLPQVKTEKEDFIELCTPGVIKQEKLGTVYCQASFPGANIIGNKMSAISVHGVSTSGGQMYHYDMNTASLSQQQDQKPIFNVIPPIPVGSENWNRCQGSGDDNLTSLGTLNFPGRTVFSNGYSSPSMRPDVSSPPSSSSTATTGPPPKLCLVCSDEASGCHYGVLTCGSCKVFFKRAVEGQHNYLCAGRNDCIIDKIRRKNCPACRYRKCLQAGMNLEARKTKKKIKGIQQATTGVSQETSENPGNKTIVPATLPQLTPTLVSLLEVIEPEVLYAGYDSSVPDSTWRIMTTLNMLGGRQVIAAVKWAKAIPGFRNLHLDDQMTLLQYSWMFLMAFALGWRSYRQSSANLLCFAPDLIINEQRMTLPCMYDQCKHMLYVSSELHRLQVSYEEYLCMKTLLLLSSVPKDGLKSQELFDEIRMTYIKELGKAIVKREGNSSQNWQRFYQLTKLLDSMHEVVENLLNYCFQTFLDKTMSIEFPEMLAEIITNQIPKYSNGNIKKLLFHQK

Compound: 4-hydroxytamoxifen [4-OH-Tamoxifen]
- sensitivity of ER(T2) to 4-OH-Tamoxifen relative to the ER(T) mutant [1]: roughly 10 fold

Compound: COC(=O)[C@]12CCC(C)(C)C[C@H]1[C@H]1C(=O)C=C3[C@@]4(C)C=C(C#N)C(=O)C(C)(C)[C@@H]4CC[C@@]3(C)[C@]1(C)CC2 [CDDO-Me, Bardoxolone methyl]
- pKi [2]: 6.9)

Compound: CCC(=O)NC[C@H](Cc1ccc(OCCc2nc(-c3ccccc3)oc2C)cc1)N/C(C)=C\C(=O)c1ccc(C(F)(F)F)cc1 [GW6471]
- pIC50 [3]: (pIC50 6.6)

Compound: O=C(Nc1ccccc1)c1cc([N+](=O)[O-])ccc1Cl [GW9662]
- pIC50 ([2]; Irreversible inhibition): (pIC50 8.1)

Compound: Oc1ccc(-c2c(-c3ccccc3)nn3c(C(F)(F)F)cc(C(F)(F)F)nc23)cc1 [PHTPP]
- pKi [4]: (pKi 6.9) (CAS

Compound: CC[C@@H]1Cc2cc(O)ccc2C2=C1c1ccc(O)cc1C[C@H]2CC [R,R-THC]
- pKi [4]: 8.4) (CAS

Compound: CCOC(=O)C1Cc2ccccc2CN1C(=O)c1ccc(SC)s1 (stereo not drawn) [SR8278]
- pIC50 (Rev-Erb-α (NR1D1)): 6.5) (CAS

Compound: C=C1C[C@H](C[C@@H](C)[C@H]2CC[C@H]3/C(=C/C=C4/C[C@@H](O)C[C@H](O)C4=C)CCC[C@]23C)OC1=O [TEI-9647]
- pIC50 (Vitamin D receptor [5]): (pIC50 8.2)

Compound: C=C1/C(=C\C=C2/CCC[C@]3(C)[C@@H]([C@H](C)/C=C/[C@@H](O)C4(C(=O)OCCCC)CC4)CC[C@@H]23)C[C@@H](O)C[C@@H]1O [ZK159222]
- pIC50 (Vitamin D receptor [6]): (pIC50 7.5)

Compound: CCOc1ncc(C)c2c1[C@H](c1ccc(C#N)cc1OC)C(C(N)=O)=C(C)N2 [finerenone]
- pIC50 [7]: (pIC50 7.7),

Compound: CN(C)c1ccc([C@H]2C[C@]3(C)[C@@H](CC[C@]3(O)CCCO)[C@@H]3CCC4=CC(=O)CCC4=C32)cc1 [onapristone]
- pIC50 [8]: (pIC50 7.6),
- pIC50 [7]: (pIC50 6.3),
